This passage reports IC50 and EC50 results from US8415351B2 (priority 2007, dated 2013).

Test [1] deals with T1, HCV polymerase 1A (Δ21 NS5B, H77) (Hepatitis C virus genotype 1a, UniProt P27958).
T1 construct: 20 to 50 nM Δ21 NS5B
Put plainly: biochemical. Particulars: IC50 1a. In outline: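 Incorporation of 1 μM ^3H-UTP, with 20 μM each of CTP and ATP on 5 nM template RNA, ran 2–4 h at room temperature. Spermine-precipitated product was filtered and scintillation-counted. IC50 came from tight-binding non-linear regression of cpm against inhibitor concentration.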

Test [2] has as its system genotype 1a-H77 subgenomic replicon cell line. Put plainly: microbe, parasite or virus in culture. In kind it is cell-based, HCV. Particulars: Hepatitis C virus, read-out: EC50 1a.
For test [3], the system named is genotype 1b-Con1 subgenomic replicon cell line. In words: microbe, parasite or virus in culture. Particulars: Hepatitis C virus, read-out: EC50 1b. In kind it is cell-based, HCV.
Test [4] deals with T2, HCV polymerase 1B (Δ21 NS5B, BK) (Hepatitis C virus genotype 1b, UniProt P26663).
T2 construct: 20 to 50 nM Δ21 NS5B
Put plainly: biochemical. In a few lines:
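Δ21 NS5B (genotype 1b, BK […]) preincubated 15 min RT with inhibitor, 2 mM MnCl2, pH 7.4, 60–125 μM GTP; started with 20 μM CTP/ATP, 1 μM 3H-UTP, 5 nM template RNA, run 2–4 h RT. Spermine-precipitated RNA filter-captured, scintillation counted; IC50 from tight-binding (Morrison) fit.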

T2 sequence (P26663 2420-2989, stated change not applied): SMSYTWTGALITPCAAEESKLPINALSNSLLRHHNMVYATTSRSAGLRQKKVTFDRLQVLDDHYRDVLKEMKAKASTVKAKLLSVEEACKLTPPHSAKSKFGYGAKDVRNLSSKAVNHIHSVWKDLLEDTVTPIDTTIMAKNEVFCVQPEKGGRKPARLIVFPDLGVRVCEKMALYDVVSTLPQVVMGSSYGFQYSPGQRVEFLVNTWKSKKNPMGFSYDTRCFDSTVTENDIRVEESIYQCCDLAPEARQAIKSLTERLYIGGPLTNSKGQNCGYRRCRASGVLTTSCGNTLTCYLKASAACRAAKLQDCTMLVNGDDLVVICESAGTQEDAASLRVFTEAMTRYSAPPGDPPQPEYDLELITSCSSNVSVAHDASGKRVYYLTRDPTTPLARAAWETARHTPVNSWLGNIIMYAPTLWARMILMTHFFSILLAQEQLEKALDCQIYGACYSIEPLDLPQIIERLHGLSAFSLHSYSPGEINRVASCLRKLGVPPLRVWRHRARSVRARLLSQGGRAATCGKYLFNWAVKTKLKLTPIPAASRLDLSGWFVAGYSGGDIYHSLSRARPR
T1 sequence (P27958 2421-2990, stated change not applied): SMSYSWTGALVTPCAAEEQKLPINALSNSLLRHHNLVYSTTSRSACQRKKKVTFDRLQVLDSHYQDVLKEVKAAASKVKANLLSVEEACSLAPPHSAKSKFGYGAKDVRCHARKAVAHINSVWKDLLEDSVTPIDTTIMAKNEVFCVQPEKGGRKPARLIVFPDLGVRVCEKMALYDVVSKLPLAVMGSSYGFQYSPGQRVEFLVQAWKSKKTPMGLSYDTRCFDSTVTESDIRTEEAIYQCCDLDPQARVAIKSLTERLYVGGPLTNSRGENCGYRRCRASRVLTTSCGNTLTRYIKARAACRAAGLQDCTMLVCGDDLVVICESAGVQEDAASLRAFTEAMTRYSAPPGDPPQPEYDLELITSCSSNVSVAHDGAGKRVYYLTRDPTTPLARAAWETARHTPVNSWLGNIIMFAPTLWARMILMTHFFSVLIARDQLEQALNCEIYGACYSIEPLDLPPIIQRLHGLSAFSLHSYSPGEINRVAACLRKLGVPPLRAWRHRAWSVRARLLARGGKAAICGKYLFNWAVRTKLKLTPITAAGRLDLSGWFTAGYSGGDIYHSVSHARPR

`COc1c(C(=O)Nc2ccc(NS(=O)(=O)CC(F)(F)F)cc2)cc(N2CCC(=O)NC2=O)cc1C(C)(C)C` [IA-L3-1.55, 3-tert-butyl-5-(2,4-dioxotetrahydropyrimidin-1(2H)-yl)-2-methoxy-N-(4-(2,2,2-trifluoro-ethylsulfonamido)phenyl)benzamide]: the IC50 in test [1] and in test [4] was 0.1 to 1 µM each time. Also, the EC50 in test [2] and in test [3] was over 1 µM throughout.
For the compound `COc1c(C#Cc2ccc(NS(C)(=O)=O)c(Cl)c2)cc(N2CCC(=O)NC2=O)cc1C(C)(C)C` [IA-L2-1.15, N-(4-((3-tert-butyl-5-(2,4-dioxotetrahydropyrimidin-1(2H)-yl)-2-methoxyphenyl)ethynyl)-2-chlorophenyl)methanesulfonamide], the IC50 in test [1] and in test [4] was 0.01 to 0.1 µM in each case. In addition, the EC50 in test [2] and in test [3] was 0.1 to 1 µM in each case.
Turning to `COc1c(-c2cccc(/C=N/NS(C)(=O)=O)c2)cc(-n2ccc(=O)[nH]c2=O)cc1C(C)(C)C` [IB-L0-1.10, (E)-N′-((3′-tert-butyl-5′-(2,4-dioxo-3,4-dihydropyrimidin-1(2H)-yl)-2′-methoxybiphenyl-3-yl)methylene)methanesulfonohydrazide], the IC50 in test [1] and in test [4] was 0.1 to 1 µM in each case. In addition, the EC50 in test [2] and in test [3] was over 1 µM in each case.
Turning to `Cc1noc(C)c1S(=O)(=O)Nc1ccc(NC(=O)c2cc(N3CCC(=O)NC3=O)cc(C(C)(C)C)c2O)cc1` [IA-L3-1.13, 3-tert-butyl-N-(4-(3,5-dimethylisoxazole-4-sulfonamido)phenyl)-5-(2,4-dioxotetrahydro-pyrimidin-1(2H)-yl)-2-hydroxybenzamide], the IC50 (as a rule, the concentration at which inhibition is half-maximal) in test [1] was 0.1 to 1 µM; in test [4] it was under 0.01 µM. The EC50 in test [2] and in test [3] was over 1 µM throughout.
Consider `COc1c(C(=O)N(C)c2ccc(NS(C)(=O)=O)cc2)cc(N2CCC(=O)NC2=O)cc1C(C)(C)C` [IA-L3-1.27, 3-tert-butyl-5-(2,4-dioxotetrahydropyrimidin-1(2H)-yl)-2-methoxy-N-methyl-N-(4-(methylsulfonamido)phenyl)benzamide], for which the IC50 in test [1] and in test [4] was 0.1 to 1 µM each time. Also, the EC50 in test [2] and in test [3] was over 1 µM in each case.
In the case of `COc1c(-c2ccc3c(c2)CCC3O)cc(-n2ccc(=O)[nH]c2=O)cc1C(C)(C)C` (stereo not drawn) [IB-L0-2.36, 1-(3-tert-butyl-5-(1-hydroxy-2,3-dihydro-1H-inden-5-yl)-4-methoxyphenyl)pyrimidine-2,4(1H,3H)-dione], the values for the IC50 in test [1] and in test [4] were 0.01 to 0.1 µM and 0.1 to 1 µM, respectively. Moreover, the figures for the EC50 in test [2] and in test [3] were 0.1 to 1 µM and 0.01 to 0.1 µM, respectively.
Take `COc1ccc(OC)c(S(=O)(=O)Nc2ccc(NC(=O)c3cc(N4CCC(=O)NC4=O)cc(C(C)(C)C)c3OC)cc2)c1` [IA-L3-1.121, 3-tert-butyl-N-(4-(2,5-dimethoxyphenylsulfonamido)phenyl)-5-(2,4-dioxotetrahydro-pyrimidin-1(2H)-yl)-2-methoxybenzamide]: the IC50 in test [1] and in test [4] was 0.1 to 1 µM in each case. For the same compound, the EC50 (in general, the concentration giving half of the maximal effect) in test [2] is over 1 µM; in test [3], 0.1 to 1 µM.
As for `COc1c(-c2ccc(CCNS(C)(=O)=O)cc2)cc(-n2ccc(=O)[nH]c2=O)cc1C(C)(C)C` [IB-L0-1.4, N-(2-(3′-tert-butyl-5′-(2,4-dioxo-3,4-dihydropyrimidin-1(2H)-yl)-2′-methoxybiphenyl-4-yl)ethyl)methanesulfonamide], the IC50 in test [1] and in test [4] was 0.01 to 0.1 µM each time. Also, the 50% effective concentration (EC50) lay in the range of 0.1 to 1 µM in test [2] and 0.01 to 0.1 µM in test [3].
On to `CC(C)(C)c1cc(N2CCC(=O)NC2=O)cc(C(=O)Nc2cccc(NS(C)(=O)=O)c2)c1O` [IA-L3-1.5, 3-tert-butyl-5-(2,4-dioxotetrahydropyrimidin-1(2H)-yl)-2-hydroxy-N-(3-(methylsulfonamido)phenyl)benzamide], for which the values for the IC50 in test [1] and in test [4] were 0.1 to 1 µM and 0.01 to 0.1 µM, respectively. Also, the EC50 in test [2] and in test [3] was over 1 µM each time.
Take `COc1c(-c2ccc(NS(C)(=O)=O)cc2)cc(-n2ccc(=O)[nH]c2=O)cc1C(C)(C)C` [IB-L0-1.2, N-(3′-tert-butyl-5′-(2,4-dioxo-3,4-dihydropyrimidin-1(2H)-yl)-2′-methoxybiphenyl-4-yl)methanesulfonamide]: the IC50 in test [1] and in test [4] was 0.1 to 1 µM each time. Moreover, the EC50 in test [2] and in test [3] was over 1 µM each time.
Turning to `COc1c(-c2ccc3c(c2)CC=C3CNS(C)(=O)=O)cc(-n2ccc(=O)[nH]c2=O)cc1-c1cccs1` [IB-L0-2.63, N-((6-(5-(2,4-dioxo-3,4-dihydropyrimidin-1(2H)-yl)-2-methoxy-3-(thiophen-2-yl)phenyl)-1H-inden-3-yl)methyl)methanesulfonamide], the IC50 in test [1] and in test [4] was 0.01 to 0.1 µM throughout. The EC50 fell in the range of 0.1 to 1 µM in test [2] and 0.01 to 0.1 µM in test [3].
Turning to `COc1c(C(=O)Nc2ccc(NS(C)(=O)=O)cc2)cc(-n2ccc(=O)[nH]c2=O)cc1C(C)(C)C` [IB-L3-1.1, 3-tert-butyl-5-(2,4-dioxo-3,4-dihydropyrimidin-1(2H)-yl)-2-methoxy-N-(4-(methylsulfon amido)phenyl)benzamide], the IC50 in test [1] and in test [4] was 0.01 to 0.1 µM each time. The EC50 in test [2] lay in the range of 0.1 to 1 µM; in test [3], 0.01 to 0.1 µM.
For `COc1c(C#Cc2cc(F)c(NS(C)(=O)=O)cc2C)cc(-n2ccc(=O)[nH]c2=O)cc1C(C)(C)C` [IB-L2-1.3, N-(4-((3-tert-butyl-5-(2,4-dioxo-3,4-dihydropyrimidin-1(2H)-yl)-2-methoxyphenyl)ethynyl)-2-fluoro-5-methylphenyl)methanesulfonamide], the IC50 is under 0.01 µM in test [1] and 0.01 to 0.1 µM in test [4]. Moreover, the results for the concentration for a half-maximal effect (EC50) in test [2] and in test [3] were 0.01 to 0.1 µM and under 0.01 µM, respectively.
Regarding `COc1c(I)cc(-n2ccc(=O)[nH]c2=O)cc1C#Cc1ccc(NS(C)(=O)=O)cc1C` [IB-L2-1.15, N-(4-((5-(2,4-dioxo-3,4-dihydropyrimidin-1(2H)-yl)-3-iodo-2-methoxyphenyl)ethynyl)-3-methylphenyl)methanesulfonamide], the IC50 in test [1] and in test [4] was 0.1 to 1 µM each time. Moreover, the EC50 in test [2] was over 1 µM; in test [3], 0.1 to 1 µM.
Take `COc1c(C#Cc2cc(F)c(NS(C)(=O)=O)cc2C(F)(F)F)cc(-n2ccc(=O)[nH]c2=O)cc1C(C)(C)C` [IB-L2-1.5, N-(4-((3-tert-butyl-5-(2,4-dioxo-3,4-dihydropyrimidin-1(2H)-yl)-2-methoxyphenyl)ethynyl)-2-fluoro-5-(trifluoromethyl)phenyl)methanesulfonamide]: the IC50 in test [1] and in test [4] was 0.01 to 0.1 µM throughout. The results for the EC50 in test [2] and in test [3] were 0.1 to 1 µM and 0.01 to 0.1 µM, respectively.
`COc1c(C(=O)Nc2ccc(N(C(C)=O)S(C)(=O)=O)cc2)cc(N2CCC(=O)NC2=O)cc1C(C)(C)C` [IA-L3-1.69, N-[4-(acetyl-methanesulfonyl-amino)-phenyl]-3-tert-butyl-5-(2,4-dioxo-tetrahydro-pyrimidin-1-yl)-2-methoxy-benzamide]: the IC50 in test [1] and in test [4] was 0.1 to 1 µM in each case. For the same compound, the EC50 in test [2] lay within 0.1 to 1 µM; in test [3], 0.01 to 0.1 µM.
`COc1c(-c2ccc(/C=N/NS(C)(=O)=O)c(F)c2)cc(-n2ccc(=O)[nH]c2=O)cc1C(C)(C)C` [IB-L0-1.3, (E)-N′-((3′-tert-butyl-5′-(2,4-dioxo-3,4-dihydropyrimidin-1(2H)-yl)-3-fluoro-2′-methoxybiphenyl-4-yl)methylene)methanesulfonohydrazide]: the IC50 in test [1] and in test [4] was 0.01 to 0.1 µM each time. Also, the figures for the EC50 in test [2] and in test [3] were 0.1 to 1 µM and 0.01 to 0.1 µM, respectively.
With `COc1c(/C=C\c2ccc(NS(C)(=O)=O)cc2)cc(N2CCC(=O)NC2=O)cc1C(C)(C)C` [IA-L1-1.10, (Z)-N-(4-(3-tert-butyl-5-(2,4-dioxotetrahydropyrimidin-1(2H)-yl)-2-methoxystyryl)phenyl)methanesulfonamide], the IC50 in test [1] and in test [4] was 0.01 to 0.1 µM throughout. Moreover, the EC50 in test [2] and in test [3] was 0.01 to 0.1 µM throughout.
For the compound `COc1c(-c2ccc(NC(=O)NS(C)(=O)=O)cc2)cc(-n2ccc(=O)[nH]c2=O)cc1C(C)(C)C` [IB-L0-1.7, N-(3′-tert-butyl-5′-(2,4-dioxo-3,4-dihydropyrimidin-1(2H)-yl)-2′-methoxybiphenyl-4-ylcarbamoyl)methanesulfonamide], the IC50 in test [1] and in test [4] was 0.01 to 0.1 µM each time. For the same compound, the EC50 in test [2] is over 1 µM; in test [3], 0.1 to 1 µM.
Consider `COc1c(C#Cc2ccc(NS(C)(=O)=O)cn2)cc(-n2ccc(=O)[nH]c2=O)cc1C(C)(C)C` [IB-L2-1.8, N-(6-((3-tert-butyl-5-(2,4-dioxo-3,4-dihydropyrimidin-1(2H)-yl)-2-methoxyphenyl)ethynyl)-pyridin-3-yl)methanesulfonamide], for which the IC50 in test [1] was under 0.01 µM; in test [4], 0.01 to 0.1 µM. The EC50 in test [2] was 0.01 to 0.1 µM; in test [3] it was under 0.01 µM.
As to `COc1c(-c2ccc3c(c2)CC[C@@H]3C(C)(C)NS(C)(=O)=O)cc(-n2ccc(=O)[nH]c2=O)cc1C(C)(C)C` (single isomer, unassigned) [IB-L0-2.22], the IC50 in test [1] and in test [4] was 0.01 to 0.1 µM throughout. In addition, the EC50 in test [2] is 0.1 to 1 µM; in test [3], 0.01 to 0.1 µM.
